In the supplement of paper PMC10307832 one finds relative viability data, which are given here for 1 cell line.

Assay in all cases: relative viability (nuclei count vs DMSO), 5 days (fraction); higher = more cells survive
Compound in the assay “Pemetrexed + Linsitinib”: Nc1nc2[nH]cc(CCc3ccc(C(=O)N[C@@H](CCC(=O)O)C(=O)O)cc3)c2c(=O)[nH]1 [Pemetrexed] + C[C@]1(O)C[C@@H](c2nc(-c3ccc4ccc(-c5ccccc5)nc4c3)c3c(N)nccn32)C1 [Linsitinib] (partner 1 µM)
The essentials:
(§1)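 Medians of duplicate plates are given as relative viability. That measure is the nuclei count in treated wells divided by the count in vehicle wells. Counts were taken on 4× images of lung cancer cell lines in 1536-well plates, 5 days after pin-tool dosing the day after seeding with one drug alone or a fixed anchor-drug dose plus five library-drug doses (not always all listed) in √10 steps.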

Compound in the assay “Pemetrexed + Tozasertib”: Nc1nc2[nH]cc(CCc3ccc(C(=O)N[C@@H](CCC(=O)O)C(=O)O)cc3)c2c(=O)[nH]1 [Pemetrexed] + Cc1cc(Nc2cc(N3CCN(C)CC3)nc(Sc3ccc(NC(=O)C4CC4)cc3)n2)n[nH]1 [Tozasertib] (partner 0.1 µM)
The essentials:
as §1

Compound in the assay “Idelalisib + Lapatinib”: CC[C@H](Nc1ncnc2[nH]cnc12)c1nc2cccc(F)c2c(=O)n1-c1ccccc1 [Idelalisib] + CS(=O)(=O)CCNCc1ccc(-c2ccc3ncnc(Nc4ccc(OCc5cccc(F)c5)c(Cl)c4)c3c2)o1 [Lapatinib] (partner 2 µM)
The essentials: as §1

Compound in the assay “Pemetrexed + Alpelisib”: Nc1nc2[nH]cc(CCc3ccc(C(=O)N[C@@H](CCC(=O)O)C(=O)O)cc3)c2c(=O)[nH]1 [Pemetrexed] + Cc1nc(NC(=O)N2CCC[C@H]2C(N)=O)sc1-c1ccnc(C(C)(C)C(F)(F)F)c1 [Alpelisib] (partner 2 µM)
Summed up:
as §1

Turning to UMC-11, the relative viability in the assay with Pemetrexed + Linsitinib (first compound 0.002 µM) is 0.836; with Pemetrexed + Linsitinib (first compound 0.006325 µM), 1.03; in the assay with Pemetrexed + Linsitinib (first compound 0.02 µM), 1.08; with Pemetrexed + Linsitinib (first compound 0.06325 µM) it was 0.985; with Pemetrexed + Linsitinib (first compound 0.2 µM) it was 0.903; with Pemetrexed + Tozasertib (first compound 0.002 µM), 0.196. The relative viability came to 0.217 with Pemetrexed + Tozasertib (first compound 0.006325 µM); 0.199 with Pemetrexed + Tozasertib (first compound 0.02 µM); 0.202 with Pemetrexed + Tozasertib (first compound 0.06325 µM); 0.208 with Pemetrexed + Tozasertib (first compound 0.2 µM); 1 in the assay with Idelalisib + Lapatinib (first compound 0.04 µM); 1.02 in the assay with Idelalisib + Lapatinib (first compound 0.1265 µM). Besides, the relative viability with Idelalisib + Lapatinib (first compound 0.4 µM) was determined as 0.985; in the assay with Idelalisib + Lapatinib (first compound 1.265 µM) it was 1.14; in the assay with Idelalisib + Lapatinib (first compound 4 µM), 0.976; in the assay with Pemetrexed + Alpelisib (first compound 0.002 µM), 1.04; with Pemetrexed + Alpelisib (first compound 0.006325 µM) it was 1.03; with Pemetrexed + Alpelisib (first compound 0.02 µM) it was 1. Also, the relative viability is 1.03 in the assay with Pemetrexed + Alpelisib (first compound 0.06325 µM) and 0.829 with Pemetrexed + Alpelisib (first compound 0.2 µM).
